Several values for one entry are separate records, joined by “and”; a condition that tells them apart may be missing. Equal values may be shown once. Read-outs that look alike come from different tables or passages of the source. Residues, ends and D or L forms follow the SMILES beside them. *: point of attachment. Myristoyl = CCCCCCCCCCCCCC(=O)*
Experiments:
NHBE cells [1] = assay: UTP-induced mucin secretion from NHBE cells (ELISA); format: cell-based, human; conditions: for activity at 100 µM: Homo sapiens, NHBE
Procedure: In Results-I-1D, NHBE cells were preincubated with the indicated inhibitor for 15 min and then stimulated with 100 μM UTP for 2 h. Secreted mucin in response to the treatment was collected and assayed by ELISA. Data are presented as mean±S.E. (n=6 at each point).
UTP is a well defined pathophysiologically relevant mucin secretagogue. Lethem ct al., Am. J. Respir. Cell Mol. Biol. 9, 315-322 (1993). […] To determine whether PKC and PKG were involved in regulation of mucin secretion in response to a pathophysiological stimulus, effects of PKC/PKG inhibitors on UTP-induced mucin secretion were investigated. NHBE cells were preincubated with various inhibitors for 15 min and then exposed to UTP (100 μM) plus the inhibitor for 2 h. The secreted mucin was measured by ELISA. […] Apparently, mucin secretion in NHBE cells may be regulated by a signaling mechanism involving both PKC and PKG.
(§1) Peptide Blocking Studies—NHBE cells were preincubated with either the MANS or the RNS peptide (1-100 μM) for 15 min, and then PMA (100 nM)+8-Br-cGMP (1 μM) or UTP (100 μM) was added, and cells were incubated for an additional 15 min or 2 h. respectively. Mucin secretion was measured by ELISA and experimental results are designated as Results-I-2B-1 and Results-I-2B-2, as follows.
PP2A is an essential component of the mucin secretory pathway. NHBE cells were preincubated with the indicated concentration of fostriecin, okadaic acid (500 nM), or medium alone for 15 min and then stimulated with PMA (100 nM)+8-Br-cGMP (1 μM) for 15 min or with UTP (100 μM) for 2 h. Secreted mucin was measured by ELISA. […] Thus, dephosphorylation of MARCKS by a PKG-activated PP2A appears to be an essential component of the signaling pathway leading to mucin granule exocytosis.
(§2) Measurement of Mucin Secretion by ELISA—Before collection of “base line” and “test” mucin samples, the accumulated mucus at the apical surface of the cells was removed by washing with phosphate-buffered saline, pH 7.2. To collect the base-line secretion, cells were incubated with medium alone, and secreted mucin in the apical medium was collected and reserved. Cells were rested for 24 h and then exposed to medium containing the selected stimulatory and/or inhibitory reagents (or appropriate controls), after which secreted mucin was collected and reserved as the test sample. Incubation times for the base line and the test were the same but varied depending on the test reagent utilized. Both base line and test secretions were analyzed by ELISA using an antibody capture method as known in the art. See, e.g., Harlow et al., Antibodies: A Laboratory Manual, pp. 570-573, Cold Spring Harbor Laboratory, Cold Spring Harbor, N.Y. (1988). The primary antibody for this assay was 17Q2 (Babco, Richmond, Calif.), a monoclonal antibody that reacts specifically with a carbohydrate epitope on human airway mucins. The ratio of test/base-line mucin, which is similar to a “secretory index”, was used to quantify mucin secretion, allowing each culture dish to serve as its own control and thus, minimizing deviation caused by variability among culture wells. Wright et al., Am. J. Physiol. 271, L854-L861 (1996). Levels of mucin secretion were reported as percentage of the medium control.
These experiments were carried out similarly to those described in Example 7. To test for stimulated secretion, the cells were exposed apically and basolaterally to uridine 5′-triphosphate (UTP) at a concentration of 0.1 mM in media. Cells were pre-incubated for 15 minutes with the MANS peptide and test cultures were then co-incubated with the MANS peptide and UTP for 45 minutes.
NHBE cells were pre-incubated with okadaic acid (500 nM) for 15 min at 37° C./5% CO2, then stimulated with PMA (100 nM)+8-Br-cGMP (1 μM) for 15 min, or with UTP (0.1 mM) for 2 hours. Secreted mucin in the apical medium was collected and assayed by ELISA. […]

MARCKS = MARCKS phosphorylation in NHBE cells (radiolabeled immunoprecipitation assay); format: cell-based, human
Procedure: NHBE cells were labeled with [^32 P]orthophosphate and then exposed to the reagents: (a) Rp-8-Br-PET-cGMP (100 μM); (b) okadaic acid (500 nM); (c) 8-Br-cGMP (1 μM); and (d) PMA (100 nM). MARCKS phosphorylation in response to the treatments was evaluated by immunoprecipitation assay.
To reveal molecular events by which MARCKS links kinase activation to mucin secretion, phosphorylation of MARCKS in response to PKC/PKG activation was investigated in depth, and results are presented as Results-I-4A. […] Once phosphorylated, MARCKS was translocated from the plasma membrane to the cytoplasm. More specifically, the activation of PKC results in MARCKS phosphorylation in NHBE cells. Cells were labeled with [^32 P]orthophosphate for 2 h and then exposed to the stimulatory and/or inhibitory reagents (see below). MARCKS phosphorylation in response to the treatments was evaluated by immunoprecipitation with the following specifics, designated Results-I-4A:
[^32P]phosphate, cells were preincubated for 2 h in phosphate-free Dulbecco's modified Eagle's medium containing 0.2% bovine serum albumin and then labeled with 0.1 mCi/ml [^32 P]orthophosphate (9000 Ci/mmol, PerkinElmer Life Sciences) for 2 h. For labeling with [^3H]myristic acid or ^3H-amino acids, cells were incubated overnight in medium containing 50 μCi/ml [^3H]myristic acid (49 Ci/mmol, PerkinElmer Life Sciences) or 0.2 mCi/ml [^3H]leucine (159 Ci/mmol, PerkinElmer Life Sciences) plus 0.4 mCi/ml [^3H]proline (100 Ci/mmol, PerkinElmer Life Sciences). Following labeling, cells were exposed to stimulatory reagents for 5 min. When an inhibitor was used, cells were preincubated with the inhibitor for 15 min prior to stimulation. At the end of the treatments, cells were lysed in a buffer containing 50 mM Tris-HCl (pH 7.5), 150 mM NaCl, 1 mM EDTA, 10% glycerol, 1% Nonidet P-40, 1 mM phenylmethylsulfonyl fluoride, 1 mM benzamidine, 10 μg/ml pepstatin A, and 10 μg/ml leupeptin. Trichloroacetic acid precipitation and scintillation counting may determine the radiolabeling efficiency in each culture. Immunoprecipitation of MARCKS protein was carried out according to the method of Spizz and Blackshear using cell lysates containing equal counts/min. Spizz et al., J. Biol. Chem. 271, 553-562 (1996). Precipitated proteins were resolved by 8% SDS-polyacrylamide gel electrophoresis and visualized by autoradiography. Anti-human MARCKS antibody (2F12) and nonimmune control antibody (6F6) were used in this assay.
Phosphorylation of MARCKS by PMA was attenuated by Calphostin C (500 nM). NHBE cells also contained substantial amounts of cGMP-dependent protein kinase type 1α (PKG-1α) activity, which was localized to the cytosolic fraction. […] In addition, the phosphorylation of MARCKS induced by PMA was reversed by incubation with 8-Br-cGMP (10 μM).

NHBE cells [2] = assay: PMA+8-Br-cGMP-induced mucin secretion from NHBE cells (ELISA); format: cell-based, human; conditions: inhibitor 500 nM, 15 min preincubation, then PMA 100 nM+8-Br-cGMP 1 μM 15 min
Procedure: as §1, with “follows. […]” for “follows.”
as §2
MARCKS-related Peptides—Both the myristoylated N-terminal sequence (MANS) and the random N-terminal sequence (RNS) peptides were synthesized at Genemed Synthesis, Inc. (San Francisco, Calif.), then purified by high pressure liquid chromatography (>95% pure), and confirmed by mass spectroscopy with each showing one single peak with an appropriate molecular mass. The MANS peptide consisted of sequence identical to the first 24 amino acids of MARCKS, i.e. the myristoylated N-terminal region that mediates MARCKS insertion into membranes, MA-[…] (SEQ ID NO: 1) (where MA=N-terminal myristate chain). The corresponding control peptide (RNS) contained the same amino acid composition as the MANS but arranged in random order, MA-[…] (SEQ ID NO: 26). The presence of the hydrophobic myristate moiety in these synthetic peptides enhances their permeability to the plasma membranes, enabling the peptides to be taken up readily by cells. To determine the effects of these peptides on mucin secretion, cells were preincubated with the peptides for 15 min prior to addition of secretagogues, and mucin secretion was then measured by ELISA.
Antisense Oligonucleotides—MARCKS antisense oligonucleotide and its corresponding control oligonucleotide were synthesized at Biognostik GmbH (Gottingen, Germany). NHBE cells were treated with 5 μM antisense or control oligonucleotide apically for 3 days (in the presence of 2 μg/ml lipofectin for the first 24 h). Cells were then incubated with secretagogues, and mucin secretion was measured by ELISA. Total RNA and protein were isolated from treated cells. MARCKS mRNA was assessed by Northern hybridization according to conventional procedures using human MARCKS cDNA as a probe. MARCKS protein level was determined by Western blot using purified anti-MARCKS IgG1 (clone 2F12) as the primary detection antibody.
The effect on mucus secretion of a myristoylated peptide containing the first 24 amino acids of the human MARCKS protein (MANS; myristoylated N-terminal sequence; SEQ ID NO: ) was tested. Cultured normal human bronchial epithelial cells as described above were used. […]

human neutrophils = assay: Human neutrophil chemotactic migration assay; format: cell-based; conditions: test peptide 50 μM; fMLP 100 nM; 0 = inactive
Procedure: Human neutrophils were isolated from heparinized whole blood collected from healthy adult donors via cephalic venipuncture by a slightly modified method as described by Akasaki et al., 1999 (Akasaki T, Koga H, and Sumimoto H., Phosphoinositide 3-kinase-dependent and -independent activation of the small GTPase Rac2 in human neutrophils, J. Biol. Chem. 274:18055-18059, 1999). The blood was mixed with dextran (final concentration 1.4% dextran) and then allowed to settle for 60 minutes, after which time the leukocyte rich plasma was collected and layered onto 5 mL of Ficoll-Paque PLUS in 15 ml, conical tubes. The plasma was centrifuged at 1800 rpm for 20 minutes at room temperature. The residual erythrocytes were lysed utilizing a hypotonic saline and the remaining neutrophils were re-suspended in Hank's balanced salt solution containing 20 mM HEPES and 8.9 mM sodium bicarbonate without calcium or magnesium (HBSS), yielding neutrophils that were greater than 98% pure and greater than 99% viable.
Neutrophil migration assay was performed according to the method described by Frevert C W, Wong V A, Goodman R B, Goodwin R, and Martin T R., Rapid fluorescence-based measurement of neutrophil migration in vitro, J. Immunol. Methods, 213:41-52, 1998. Human neutrophils were labeled with the fluorescent dye calcein for 30 minutes at room temperature. Cells were then washed and resuspended in a migration buffer containing HBSS with 2% FCS. Cells were treated with buffer alone or with the indicated test peptide (50 μM) for 30 minutes at 37° C. Treated cells (1×10^4 cells) were then placed on the upper side of a ChemoTx® chemotaxis plate (Neuroprobe, Gaithersburg, Md.) membrane (2 μm pore size). Lower wells of the plate were filled with migration buffer alone or with buffer containing fMLP (100 nM), LTB4 (100 nM), or PAF (100 nM). Wells containing 1×10^4 labeled cells were used as standards to calculate migration percentage. Cells were allowed to migrate for 1 hour at 37° C. After incubation, cells on the top of the filter were washed away with PBS. Followed by this, 0.5 mM EDTA was added to the top of the filter for 5 min to detach adherent cells and the membrane was again washed. The plate was then centrifuged at 1000 rpm for 1 min. The filter was removed and the fluorescence was measured in the lower wells (485 nm excitation, 530 nm emission wavelength) using an fMax fluorescence plate reader (Molecular Devices, Sunnyvale, Calif.). Percent migration was determined by dividing the fluorescence of each well by the fluorescence of the standard wells containing 1×10^4 labeled cells. A lesser number of migrated neutrophils in the bottom compartment is indicative of the test peptide being an inhibitor of inflammation.

[3] = inhibitor 500 nM, 15 min preincubation, then UTP 100 μM 2 h

## O=c1ccn([C@@H]2O[C@H](COP(=O)(O)OP(=O)(O)OP(=O)(O)O)[C@@H](O)[C@H]2O)c(=O)[nH]1 [UTP, uridine 5′-triphosphate]
NHBE cells [1]; 0.75 h, 0.1 mM UTP 45 min, no peptide (Results-M-2), read-out: Mucin secretion, % of control levels
  activity at 100 µM: 159%
NHBE cells [1]; 2 h, UTP 100 μM (0.1 mM) 2 h, no inhibitor, read-out: Mucin secretion as percent of control
  activity at 100 µM: 159%
NHBE cells [1]; UTP 100 μM (0.1 mM) 2 h, no inhibitor
  Mucin secretion as percent of control: 156% and 161% and 152%

## O=C1C(Nc2ccccc2)=CC(=O)c2ncccc21 [LY83583]
NHBE cells [1]; inhibitor 50 μM, 15 min preincubation, then UTP 100 μM 2 h
  Mucin secretion as percent of control: 111% and 112%

## Calphostin C
MARCKS; inhibitor 500 nM + 100 nM PMA
  MARCKS phosphorylation (band in immunoprecipitation assay): attenuated
MARCKS; inhibitor 500 nM alone
  MARCKS phosphorylation (band in immunoprecipitation assay): dark band
NHBE cells [1]; [3]
  Mucin secretion as percent of control: 120%
NHBE cells [1]; inhibitor 500 nM, 15 min preincubation, then UTP 100 μM 2 h, listed as calphostin C
  Mucin secretion as percent of control: 121%

## CCCCCCOC(=O)[C@]1(O)C[C@@H]2O[C@@]1(C)n1c3ccccc3c3c4c(c5c6ccccc6n2c5c31)C(=O)NC4 [KT5720]
NHBE cells [1]; [3]
  Mucin secretion as percent of control: 157% and 160%
NHBE cells [2]
  Mucin secretion as % of control: did not affect

## CCCCCCCCCCCCCC(=O)NCC(=O)N[C@@H](C)C(=O)N[C@@H](CCC(N)=O)C(=O)N[C@@H](Cc1ccccc1)C(=O)N[C@@H](CO)C(=O)N[C@@H](CCCCN)C(=O)N[C@H](C(=O)N[C@@H](C)C(=O)O)[C@@H](C)O [SEQ ID NO: 17, N-myristoyl-GAQFSKTA] (Myristoyl-GAQFSKTA-OH; C-terminus assumed)
Human neutrophils
  Neutrophil Migration (% Inhibition), fMLP: 92.2%

— patent US8501911B2, “Methods of reducing inflammation and mucus hypersecretion” (Biomarck Pharmaceuticals, Ltd, priority 1999, dated 2013)
